# Data: US9302999B2, “Substituted triazoles as herbicides” (E. I. DU PONT DE NEMOURS AND COMPANY, priority 2012, dated 2016)
# Experiments:
# Assay type in all cases: in vivo
# Conditions in all cases: Preemergence, scale 0 to 100
# [1] = test system: kochia (Kochia scoparia); assay: Test E pre-/postemergence: kochia
# Description: (§1) Seeds of plant species selected from corn (Zea mays), soybean (Glycine max), velvetleaf (Abutilon theophrasti), lambsquarters (Chenopodium album), poinsettia, wild (wild poinsettia, Euphorbia heterophylla), pigweed, palmer (palmer pigweed, Amaranthus palmeri), waterhemp (common waterhemp, Amaranthus rudis), smartweed (ladysthumb smartweed, Polygonum persicaria), surinam grass (Brachiaria decumbens), crabgrass, large (large crabgrass, Digitaria sanguinalis), crabgrass, Brazil (Brazilian crabgrass, Digitaria horizontalis), panicum, fall (fall panicum, Panicum dichotomiflorum), foxtail, giant (giant foxtail, Setaria faberii), foxtail, green (green foxtail, Setaria viridis), goosegrass (Eleusine indica), johnsongrass (Sorghum halepense), ragweed (common ragweed, Ambrosia elation), barnyardgrass (Echinochloa crus-galli), sandbur (southern sandbur, Cenchrus echinatus), arrowleaf sida (Sida rhombifolia), ryegrass, Italian (Italian ryegrass, Lolium multiflorum), dayflower, (VA) (Virginia dayflower, Commelina virginica), field bindweed (Convolvulus arvensis), cocklebur (common cocklebur, Xanthium strumarium), morningglory (Ipomoea coccinea), nightshade (eastern black nightshade, Solanum ptycanthum), kochia (Kochia scoparia), nutsedge, yellow (yellow nutsedge, Cyperus esculentus) and beggarticks (hairy beggarticks, Bidens pilosa) were planted into a silt loam soil and treated preemergence with test chemicals formulated in a non-phytotoxic solvent mixture which included a surfactant. At the same time, plants selected from these crop and weed species were planted in pots containing a growing medium comprising spaghnum peat moss, vermiculite, wetting agent and starter nutrients and treated with postemergence applications of some of the test chemicals formulated in the same manner. Plants ranged in height from 2 to 18 cm for postemergence treatments (1- to 4-leaf stage).
# (§2) Treated plants and controls were maintained in a greenhouse for 14 to 21 days, after which time all species were compared to controls and visually evaluated. Plant response ratings, summarized in Table E, are based on a scale of 0 to 100 where 0 is no effect and 100 is complete control. A dash (-) response means no test result.
# [2] = test system: dayflower, (VA) (Virginia dayflower, Commelina virginica); assay: Test E pre-/postemergence: dayflower, (VA)
# Description: as §1, §2
# [3] = test system: poinsettia, wild (wild poinsettia, Euphorbia heterophylla); assay: Test E pre-/postemergence: poinsettia, wild
# Description: as §1, §2
# [4] = test system: ragweed (common ragweed, Ambrosia elation); assay: Test E pre-/postemergence: ragweed
# Description: as §1, §2
# [5] = test system: cocklebur (common cocklebur, Xanthium strumarium); assay: Test E pre-/postemergence: cocklebur
# Description: as §1, §2
# [6] = test system: foxtail, green (green foxtail, Setaria viridis); assay: Test E pre-/postemergence: foxtail, green
# Description: as §1, §2
# [7] = test system: lambsquarters (Chenopodium album); assay: Test E pre-/postemergence: lambsquarters
# Description: as §1, §2
# [8] = test system: waterhemp (common waterhemp, Amaranthus rudis); assay: Test E pre-/postemergence: waterhemp
# Description: as §1, §2
# [9] = test system: morningglory (Ipomoea coccinea); assay: Test E pre-/postemergence: morningglory
# Description: as §1, §2
# [10] = test system: goosegrass (Eleusine indica); assay: Test E pre-/postemergence: goosegrass
# Description: as §1, §2
smiles,measurement,setting,value
"COc1nn(-c2ccc(C(F)(F)F)cc2)nc1Cc1ccnc(C(F)(F)F)c1 [Compound 15, 4-[[5-methoxy-2-[4-(trifluoromethyl)phenyl]-2H-1,2,3-triazol-4-yl]methyl]-2-(trifluoromethyl)pyridine]",Plant response rating: Kochia,[1]; 16 g ai/ha,35
same,Plant response rating: Kochia,[1]; 31 g ai/ha,65
same,Plant response rating: Kochia,[1]; 62 g ai/ha,90
same,Plant response rating: Kochia,[1]; 125 g ai/ha,100
same,Plant response rating: Kochia,[1]; 250 g ai/ha,100
same,"Plant response rating: Dayflower, VA",[2]; 16 g ai/ha,5
same,"Plant response rating: Dayflower, VA",[2]; 31 g ai/ha,10
same,"Plant response rating: Dayflower, VA",[2]; 62 g ai/ha,25
same,"Plant response rating: Dayflower, VA",[2]; 125 g ai/ha,60
same,"Plant response rating: Dayflower, VA",[2]; 250 g ai/ha,95
same,"Plant response rating: Poinsettia, Wild",[3]; 16 g ai/ha,30
same,"Plant response rating: Poinsettia, Wild",[3]; 31 g ai/ha,30
same,"Plant response rating: Poinsettia, Wild",[3]; 62 g ai/ha,65
same,"Plant response rating: Poinsettia, Wild",[3]; 125 g ai/ha,75
same,"Plant response rating: Poinsettia, Wild",[3]; 250 g ai/ha,80
same,Plant response rating: Ragweed,[4]; 16 g ai/ha,0
same,Plant response rating: Ragweed,[4]; 31 g ai/ha,5
same,Plant response rating: Ragweed,[4]; 125 g ai/ha,30
same,Plant response rating: Ragweed,[4]; 250 g ai/ha,60
same,Plant response rating: Cocklebur,[5]; 31 g ai/ha,0
same,Plant response rating: Cocklebur,[5]; 62 g ai/ha,0
same,Plant response rating: Cocklebur,[5]; 250 g ai/ha,20
same,"Plant response rating: Foxtail, Green",[6]; 16 g ai/ha,20
same,"Plant response rating: Foxtail, Green",[6]; 62 g ai/ha,90
same,"Plant response rating: Foxtail, Green",[6]; 125 g ai/ha,100
same,"Plant response rating: Foxtail, Green",[6]; 250 g ai/ha,100
same,Plant response rating: Lambsquarters,[7]; 16 g ai/ha,90
same,Plant response rating: Lambsquarters,[7]; 31 g ai/ha,100
same,Plant response rating: Lambsquarters,[7]; 62 g ai/ha,100
same,Plant response rating: Lambsquarters,[7]; 125 g ai/ha,100
same,Plant response rating: Lambsquarters,[7]; 250 g ai/ha,100
same,Plant response rating: Waterhemp,[8]; 16 g ai/ha,98
same,Plant response rating: Waterhemp,[8]; 31 g ai/ha,100
same,Plant response rating: Waterhemp,[8]; 62 g ai/ha,100
same,Plant response rating: Waterhemp,[8]; 125 g ai/ha,100
same,Plant response rating: Waterhemp,[8]; 250 g ai/ha,100
same,Plant response rating: Morningglory,[9]; 16 g ai/ha,10
same,Plant response rating: Morningglory,[9]; 31 g ai/ha,50
same,Plant response rating: Morningglory,[9]; 62 g ai/ha,50
same,Plant response rating: Morningglory,[9]; 125 g ai/ha,65
same,Plant response rating: Morningglory,[9]; 250 g ai/ha,65
same,Plant response rating: Goosegrass,[10]; 16 g ai/ha,75
same,Plant response rating: Goosegrass,[10]; 31 g ai/ha,100
same,Plant response rating: Goosegrass,[10]; 62 g ai/ha,100
same,Plant response rating: Goosegrass,[10]; 125 g ai/ha,100
same,Plant response rating: Goosegrass,[10]; 250 g ai/ha,100
Cc1nn(-c2ccc(C(F)(F)F)cn2)nc1Oc1ccnc(C(F)(F)F)c1 [Compound 23],Plant response rating: Kochia,[1]; 16 g ai/ha,0
same,Plant response rating: Kochia,[1]; 31 g ai/ha,0
same,Plant response rating: Kochia,[1]; 62 g ai/ha,60
same,Plant response rating: Kochia,[1]; 125 g ai/ha,100
same,Plant response rating: Kochia,[1]; 250 g ai/ha,100
same,"Plant response rating: Dayflower, VA",[2]; 16 g ai/ha,0
same,"Plant response rating: Dayflower, VA",[2]; 31 g ai/ha,0
same,"Plant response rating: Dayflower, VA",[2]; 62 g ai/ha,0
same,"Plant response rating: Dayflower, VA",[2]; 125 g ai/ha,5
same,"Plant response rating: Dayflower, VA",[2]; 250 g ai/ha,5
same,"Plant response rating: Poinsettia, Wild",[3]; 16 g ai/ha,0
same,"Plant response rating: Poinsettia, Wild",[3]; 31 g ai/ha,0
same,"Plant response rating: Poinsettia, Wild",[3]; 62 g ai/ha,0
same,"Plant response rating: Poinsettia, Wild",[3]; 125 g ai/ha,35
same,"Plant response rating: Poinsettia, Wild",[3]; 250 g ai/ha,35
same,Plant response rating: Ragweed,[4]; 16 g ai/ha,0
same,Plant response rating: Ragweed,[4]; 31 g ai/ha,0
same,Plant response rating: Ragweed,[4]; 62 g ai/ha,0
same,Plant response rating: Ragweed,[4]; 125 g ai/ha,0
same,Plant response rating: Ragweed,[4]; 250 g ai/ha,25
same,Plant response rating: Cocklebur,[5]; 16 g ai/ha,0
same,Plant response rating: Cocklebur,[5]; 31 g ai/ha,0
same,Plant response rating: Cocklebur,[5]; 62 g ai/ha,0
same,Plant response rating: Cocklebur,[5]; 125 g ai/ha,0
same,Plant response rating: Cocklebur,[5]; 250 g ai/ha,0
same,"Plant response rating: Foxtail, Green",[6]; 16 g ai/ha,0
same,"Plant response rating: Foxtail, Green",[6]; 31 g ai/ha,0
same,"Plant response rating: Foxtail, Green",[6]; 62 g ai/ha,5
same,"Plant response rating: Foxtail, Green",[6]; 125 g ai/ha,70
same,"Plant response rating: Foxtail, Green",[6]; 250 g ai/ha,95
same,Plant response rating: Lambsquarters,[7]; 31 g ai/ha,0
same,Plant response rating: Lambsquarters,[7]; 62 g ai/ha,0
same,Plant response rating: Lambsquarters,[7]; 125 g ai/ha,98
same,Plant response rating: Lambsquarters,[7]; 250 g ai/ha,98
same,Plant response rating: Waterhemp,[8]; 16 g ai/ha,0
same,Plant response rating: Waterhemp,[8]; 31 g ai/ha,80
same,Plant response rating: Waterhemp,[8]; 62 g ai/ha,80
same,Plant response rating: Waterhemp,[8]; 125 g ai/ha,98
same,Plant response rating: Waterhemp,[8]; 250 g ai/ha,100
same,Plant response rating: Goosegrass,[10]; 16 g ai/ha,0
same,Plant response rating: Goosegrass,[10]; 62 g ai/ha,20
same,Plant response rating: Goosegrass,[10]; 125 g ai/ha,35
same,Plant response rating: Goosegrass,[10]; 250 g ai/ha,60
